Data taken from PMC10938783, “A novel pan-PI3K inhibitor KTC1101 synergizes with anti-PD-1 therapy by targeting tumor suppression and immune activation” (Molecular Cancer, 2024).

Legend:
[1] = tested on: immune cell populations in B16 tumors; assay: Flow cytometry of tumor-infiltrating immune cells; format: in vivo, mouse; details: intermittent dosing
Description: To obtain single-cell suspensions for analysis by flow cytometry, tumors were excised, minced, and dissociated in Deoxyribonuclease/collagenase/hyaluronidase buffer (0.1 mg/mL Deoxyribonuclease I, 0.2 mg/mL Collagenase IV and 0.2 mg/mL Hyaluronidase) for 60 min at 37 °C with agitation, and strained through a 70 μm strainer for downstream applications. Tissue was dissociated as described above to obtain single-cell suspensions. Cells were stained with antibodies for 30 min at 4 °C, and then fixed and intracellularly stained using Foxp3/ Transcription Factor Staining Buffer Set (eBioscience) according to the manufacturer’s instructions. Antibodies used in this study can be found in Supplementary Table 2. The stained cells were acquired on a BD C6 Flow Cytometer using BD AccuriTM C6 Software (BD Biosciences) and the data were processed using FlowJo software.

[2] = tested on: TMD8 tumors; assay: TMD8 xenograft in NSG mice; format: in vivo, mouse
Description: (§1) BALB/c nude, NSG, and C57BL/6J mice were obtained from Tianjin Medical University. The housing temperature was controlled, ranging from 20.5–24 °C, and humidity was monitored but not controlled ranging from 30–70%. The 12-h daily light cycle was from 06:00 to 18:00. To generate a murine subcutaneous tumor model, PC3 and HSC2 cells were subcutaneously injected into the right lateral flank of 4- to 5-week-old male BALB/c nude mice. TMD8, CAL33, and S24 cells were subcutaneously injected into the right lateral flank of 4- to 5-week-old male NSG mice. When tumors reached a volume of 300–500 mm^3, they were excised, diced into 2 mm × 2 mm × 2 mm pieces, and implanted into the right flanks of BALB/c nude or NSG mice. Tumors were allowed to grow to a volume of 100 mm^3, and then the animals were randomly divided into several groups. Each group of five mice was treated with either vehicle or KTC1101 (25, 50, or 100 mg/kg, PO). Tumor size was measured every 3 d or 4 d until the endpoint. The tumor volume was calculated using the following formula: length × width × height/2. At the end of the experimental period, mice were euthanized by overdosing on pentobarbital sodium, and the tumors were removed. Tumor tissue was formalin-fixed and paraffin-embedded for histological analysis.

[3] = tested on: CAL33 tumors; assay: CAL33 xenograft in NSG mice; format: in vivo, mouse; details: 100 mg/kg PO
Description: as §1

[4] = Liver microsome metabolic stability assay; details: mouse, liver microsomes
[5] = tested on: CCL5 and CXCL10; assay: qRT-PCR and ELISA of chemokines in B16 cells; format: cell-based, mouse; details: 48 h
Description: qRT-PCR was performed as previously described. RNA was isolated using Trizol and used to synthesize complementary DNA (cDNA) using a cDNA Synthesis Kit (GenStar), and RT-PCR was performed with aliquots of cDNA samples mixed with SYBR Green MasterMix (Applied Biosystems). Reactions were performed in triplicate.
We examined the secreted cytokines from B16 cells under both in vitro and in vivo conditions. For in vitro-cultured B16 cells, the cells were seeded into six-well plates and treated with either DMSO or a range of KTC1101 concentrations. After 48 h, the total cell count was determined, and the cell culture supernatant was collected for further analysis. For in vivo tumor tissues, the harvested tumor tissues were homogenized. Post-centrifugation, the supernatant was collected and used for protein quantification utilizing a BCA kit. The concentrations of murine CCL5 and CXCL10 in these supernatants were then quantified using specific ELISA kits, in accordance with the manufacturer's instructions.

[6] = tested on: PC3 tumors; assay: PC3 xenograft in BALB/c nude mice; format: in vivo, mouse
Description: as §1

[7] = tested on: HSC2 cells; assay: Cell proliferation MTT assay; format: cell-based; details: Homo sapiens, HSC-2; HSC2, 48-h treatment; read-out: IC50 cell viability
Description: (§2) Cell proliferation was measured by MTT assay as previously described. The cells were seeded in a volume of 200 μL/well in 96-well plates. The next day, cells were treated with DMSO or a series of concentrations of KTC1101. After a 48-h incubation period, 20 μL of MTT (5 mg/mL) was added to each well. After further incubation for 4 h at 37 °C, the absorbance at 490 nm was measured using an iMark microplate reader (BIO-RAD, Hercules, CA, USA).

[8] = tested on: HSC4 cells; assay: Cell proliferation MTT assay; format: cell-based; details: Homo sapiens, HSC-4; HSC4, 48-h treatment; read-out: IC50 cell viability
Description: as §2

[9] = tested on: TMD8 cells; assay: Cell proliferation MTT assay; format: cell-based; details: Homo sapiens; TMD8, 48-h treatment; read-out: IC50 cell viability
Description: as §2

[10] = tested on: CAL33 cells; assay: Cell proliferation MTT assay; format: cell-based; details: Homo sapiens, CAL-33; CAL33, 48-h treatment; read-out: IC50 cell viability
Description: as §2

[11] = tested on: PC3 cells; assay: Cell proliferation MTT assay; format: cell-based; details: Homo sapiens, PC-3; PC3, 48-h treatment; read-out: IC50 cell viability
Description: as §2

[12] = tested on: B16 tumor-bearing C57BL/6 mice; assay: Toxicity and safety profiling in vivo (serum biochemistry, routine blood, H&E); set-up: species or system mouse; details: hematological parameters in the blood
Description: The B16 tumor-bearing C57BL/6 mice were divided into 4 groups randomly (n = 3 per group) and treated with vehicle, KTC1101 (100 mg/kg 3on/4off, PO), anti-PD-1 antibody (250 μg per mouse, IP), or a combination of KTC1101 and anti-PD-1 antibody. After 14 days of treatment, all mice were sacrificed. Blood samples were collected for analysis; one portion was centrifuged (3000 rpm, 4 °C) to obtain serum for biochemical parameter analysis, including alanine aminotransferase (ALT), aspartate aminotransferase (AST), creatinine (CREA), and blood urea nitrogen (BUN). The other portion was used for routine blood examination. Major organs including the heart, liver, spleen, lung, and kidney were collected, sectioned, and stained with H&E for histopathological evaluation.

## COc1cc(N)cc2c1nc(C(F)F)n2-c1nc(N2CCCOCC2)nc(N2CCOCC2)n1 [KTC1101, 2-(difluoromethyl)-4-methoxy-1-(4-morpholino-6-(1,4-oxazepan-4-yl)-1,3,5-triazin-2-yl)-1H-benzo[d]imidazol-6-amine]
[1]
  intratumoral T cell populations (FACS): increase in intratumoral CD8^+ T, CD4^+ T, and a reduction of Treg cells
[2]; 100 mg/kg PO
  tumor growth: slowed tumor progression
[2]; 100 mg/kg and 125 mg/kg PO
  efficacy versus ZSTK474 and Copanlisib: marginally outperformed those of 200 mg/kg ZSTK474 orally and was comparable to 14 mg/kg Copanlisib intravenously
[3]
  tumor growth: Tumor growth arrest
[4]
  half-life at 1 µM: 40.7 min
  microsomal CLint at 1 µM: 34 µL/min/mg
[5]
  expression levels of CCL5 and CXCL10: significantly stimulated
[6]; 25 mg/kg PO
  tumor growth: significant delay in tumor growth
[6]; 50 mg/kg PO
  efficacy in inhibiting PC3 tumors: equivalent to 200 mg/kg ZSTK474
[6]; 100 mg/kg PO
  tumor growth: Tumor growth arrest
[7]
  IC50: 117 nM
[8]
  IC50: 50.6 nM
[9]
  IC50: 20.6 nM
[10]
  IC50: 124 nM
[11]
  IC50: 23.2 nM
[12]
  GRAN: 0.93±0.67 109L-1
  MCV: 52.90 ± 8.84 fL
  PLT: 745.00±220.75 109L-1
  RBC: 6.03±2.50 1012L-1
  RDW: 17.97±3.41%
  WBC: 3.67±3.06 109L-1
